Experimental data as given in patent US7504432B2 (priority 2000, dated 2009).

How the values were obtained:
[1] = target: T1, m2 muscarinic acetylcholine receptor (Homo sapiens, UniProt P08172); test: biochemical; format: binding
T1 construct: purchased Receptor Biology, Inc; host or cells: CHO cells
T1 sequence (P08172 1-466): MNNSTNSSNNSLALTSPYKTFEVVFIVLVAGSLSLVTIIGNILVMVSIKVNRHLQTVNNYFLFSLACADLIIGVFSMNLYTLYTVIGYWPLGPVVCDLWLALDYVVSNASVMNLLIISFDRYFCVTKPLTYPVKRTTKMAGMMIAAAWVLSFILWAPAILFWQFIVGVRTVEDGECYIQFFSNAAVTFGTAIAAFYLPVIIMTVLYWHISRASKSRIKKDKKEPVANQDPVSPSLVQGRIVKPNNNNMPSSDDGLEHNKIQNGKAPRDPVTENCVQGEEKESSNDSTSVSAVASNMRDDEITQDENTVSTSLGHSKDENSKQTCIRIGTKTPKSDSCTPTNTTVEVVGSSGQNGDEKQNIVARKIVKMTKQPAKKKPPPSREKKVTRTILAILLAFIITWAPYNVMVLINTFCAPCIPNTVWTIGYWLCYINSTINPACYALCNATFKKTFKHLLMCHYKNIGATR

muscarinic M3 receptor = target: T2, muscarinic M3 receptor (Canis lupus familiaris, UniProt A0A8I3N190); settings: dog, in vivo
T2 construct: 12-36 months old male beagle dogs (weighing 10-15 kg) were used; from tissue; host or cells: anesthetized male beagle dogs, airway in vivo
T2 sequence (A0A8I3N190 1-590): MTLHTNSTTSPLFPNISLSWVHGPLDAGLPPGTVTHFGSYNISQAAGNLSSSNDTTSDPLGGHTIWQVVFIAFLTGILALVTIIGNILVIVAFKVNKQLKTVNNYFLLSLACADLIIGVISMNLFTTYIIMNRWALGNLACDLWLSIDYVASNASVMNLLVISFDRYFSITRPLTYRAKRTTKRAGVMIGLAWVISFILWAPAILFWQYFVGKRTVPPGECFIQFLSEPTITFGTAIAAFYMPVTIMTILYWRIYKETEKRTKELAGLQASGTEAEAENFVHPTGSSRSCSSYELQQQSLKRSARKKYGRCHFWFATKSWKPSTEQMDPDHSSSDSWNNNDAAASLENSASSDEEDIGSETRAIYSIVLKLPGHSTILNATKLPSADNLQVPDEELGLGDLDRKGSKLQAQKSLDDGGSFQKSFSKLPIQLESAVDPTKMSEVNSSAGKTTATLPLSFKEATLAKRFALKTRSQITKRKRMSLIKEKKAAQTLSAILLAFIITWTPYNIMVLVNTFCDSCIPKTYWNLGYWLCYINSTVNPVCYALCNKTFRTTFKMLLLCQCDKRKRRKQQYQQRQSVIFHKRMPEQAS

[2] = target: T3, M2 receptor in isolated rat right atrium (Rattus norvegicus, UniProt P10980); test: biochemical
T3 construct: A male SD strain rat (weighing 300-500 g) was killed by exsanguination, and the right atrium was isolated; from tissue; host or cells: isolated right atrium of male SD rat
T3 sequence (P10980 1-466): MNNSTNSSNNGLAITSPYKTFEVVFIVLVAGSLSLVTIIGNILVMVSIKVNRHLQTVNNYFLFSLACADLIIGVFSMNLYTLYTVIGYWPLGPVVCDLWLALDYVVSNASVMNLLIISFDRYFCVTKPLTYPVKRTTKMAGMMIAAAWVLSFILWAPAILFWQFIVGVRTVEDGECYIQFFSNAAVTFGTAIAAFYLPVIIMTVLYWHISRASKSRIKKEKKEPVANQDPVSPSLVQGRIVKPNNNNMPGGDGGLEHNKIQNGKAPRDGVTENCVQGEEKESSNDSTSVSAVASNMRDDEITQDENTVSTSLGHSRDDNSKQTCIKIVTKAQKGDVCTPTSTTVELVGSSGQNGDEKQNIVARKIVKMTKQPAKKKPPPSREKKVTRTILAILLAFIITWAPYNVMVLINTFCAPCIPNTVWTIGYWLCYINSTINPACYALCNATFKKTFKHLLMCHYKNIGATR

[3] = target: T4, m3 muscarinic acetylcholine receptor (Homo sapiens, UniProt P20309); test: biochemical; format: binding
T4 construct: purchased Receptor Biology, Inc; host or cells: CHO cells
T4 sequence (P20309 whole entry): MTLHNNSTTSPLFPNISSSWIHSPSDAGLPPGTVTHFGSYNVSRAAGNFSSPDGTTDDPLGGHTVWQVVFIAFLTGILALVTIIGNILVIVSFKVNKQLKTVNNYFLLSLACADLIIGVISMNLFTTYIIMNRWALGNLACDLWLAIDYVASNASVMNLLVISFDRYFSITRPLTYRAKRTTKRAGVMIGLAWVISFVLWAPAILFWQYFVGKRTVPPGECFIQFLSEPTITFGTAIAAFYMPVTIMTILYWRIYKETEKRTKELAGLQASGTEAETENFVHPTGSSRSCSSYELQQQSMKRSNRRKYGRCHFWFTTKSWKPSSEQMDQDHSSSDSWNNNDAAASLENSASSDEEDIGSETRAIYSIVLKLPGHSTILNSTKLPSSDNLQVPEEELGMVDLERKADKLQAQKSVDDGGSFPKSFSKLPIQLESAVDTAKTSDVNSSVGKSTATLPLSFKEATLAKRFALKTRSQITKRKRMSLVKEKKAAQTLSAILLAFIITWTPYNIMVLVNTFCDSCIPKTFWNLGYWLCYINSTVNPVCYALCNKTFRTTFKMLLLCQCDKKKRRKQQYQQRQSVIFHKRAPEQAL

[4] = target: T5, airway M3 receptor in isolated rat trachea (Rattus norvegicus, UniProt P08483); test: biochemical
T5 construct: A male SD strain rat (weighing 300-500 g) was killed by exsanguination, and the trachea was isolated; from tissue; host or cells: isolated trachea of male SD rat
T5 sequence (P08483 whole entry): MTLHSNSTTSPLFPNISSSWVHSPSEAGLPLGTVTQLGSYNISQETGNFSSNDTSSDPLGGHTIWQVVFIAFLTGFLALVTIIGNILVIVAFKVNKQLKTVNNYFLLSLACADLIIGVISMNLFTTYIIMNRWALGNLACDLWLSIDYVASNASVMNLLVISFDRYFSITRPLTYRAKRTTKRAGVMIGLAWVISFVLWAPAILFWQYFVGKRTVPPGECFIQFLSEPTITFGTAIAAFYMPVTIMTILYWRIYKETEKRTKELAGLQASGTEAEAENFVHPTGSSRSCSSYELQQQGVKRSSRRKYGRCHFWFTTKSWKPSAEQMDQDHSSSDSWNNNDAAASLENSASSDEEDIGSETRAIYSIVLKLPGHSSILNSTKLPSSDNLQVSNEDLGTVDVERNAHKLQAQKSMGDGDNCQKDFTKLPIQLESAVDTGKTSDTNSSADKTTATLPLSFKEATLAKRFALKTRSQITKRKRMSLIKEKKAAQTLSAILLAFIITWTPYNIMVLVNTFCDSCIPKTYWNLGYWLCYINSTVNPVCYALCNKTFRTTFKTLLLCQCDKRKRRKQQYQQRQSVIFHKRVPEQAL

With `N=CN1CCC(CCOC(=O)[C@](O)(c2ccccc2)[C@@H]2CCC(F)(F)C2)CC1` [Example 54, 2-(1-(Iminomethyl)piperidin-4-yl)ethyl (2R)-2-((1R)-3,3-difluorocyclopentyl)-2-hydroxy-2-phenylethanoate] the Ki [1] was 4.76 nM, the “Shift Value 5 minutes after” value (muscarinic M3 receptor) was >30 and the “Shift Value 4 hours after” value (muscarinic M3 receptor) was >30. The “Shift Value 24 hours after” value (muscarinic M3 receptor) was 3.9, the Kb [2] was 10.6 nM and the Ki [3] was 0.079 nM. For the same compound, the “m2/m3 (ratio of Ki)” value [3] was 60.2, the Kb [4] was 0.21 nM and the “M2/M3 (ratio of KB)” value ([4]; rat, right atrium / trachea) was 50.
